Data reported in publication PMC12564265, “Navigating the Deep Eutectic Solvent Landscape: Experimental and Machine Learning Solubility Explorations of Syringic, p-Coumaric, and Caffeic Acids” (International Journal of Molecular Sciences, 2025).
Several values for one entry are separate records, joined by “and”; a condition that tells them apart may be missing. Identical values can stand only once.

Assay: Shake-flask solubility with spectrophotometric measurement in aqueous DES mixtures
Type: physicochemical
Details: for Increase in the solubility compared to the neat DES: 25 °C
Method: In order to determine the solubility of the three studied phenolic acids in deep eutectic solvents, a very well-established shake-flask method coupled with spectrophotometric measurements was utilized. The initial procedure involved the preparation of various DESs, which was conducted by mixing their HBA and HBD counterparts in a glass vessel and heating the composition until the formation of a transparent, uniform liquid. […] For additional measurements, the DESs were mixed with water in varying proportions, creating aqueous DES systems. Saturated solutions of CAF, SYR, and COU were obtained by adding excess amounts of these compounds to test tubes containing either a neat deep eutectic solvent or its aqueous solution. Such samples were placed in the Orbital Shaker Incubator ES-20/60 from Biosan (Riga, Latvia) and heated for 24 h at 25 °C, 30 °C, 35 °C, and 40 °C (±0.1 °C) with simultaneous mixing at 60 rpm. Before measurements, the samples were filtered using a PTFE syringe filter from Qpore (Dallas, TX, USA) with a 0.22 μm pore size. In order to avoid possible precipitation of the saturated solutions at decreased temperatures, the test tubes, syringes, pipette tips, and filters were kept at a temperature identical to that of the samples. The spectrophotometric measurements required the preparation of calibration curves for the three APIs. This involved the preparation of a stock solution of each compound in methanol, which was later successfully diluted, and the obtained solutions of varying concentrations were measured using an A360 spectrophotometer from AOE Instruments (Shanghai, China). The wavelength range was set to 200-500 nm, and the resolution was 1 nm. The analytical wavelengths were determined to be 324 nm for caffeic acid, 273 nm for syringic acid, and 308 nm for p-coumaric acid. The final regression equations, obtained after averaging three distinct sets of measurements, are collected in Table 2 together with determination coefficients and limits of detection (LOD) and quantification (LOQ) for the calibration curves. The measurements of the samples were conducted with the same spectrophotometer and identical settings. Methanol was used for the dilution of the samples so that they could remain within the linearity range of the method. Complete spectra of the samples were recorded, but for the solubility determination, the absorbance values at a specific analytical wavelength were considered. These values were combined with the corresponding regression equations of the calibration curves and served for the calculation of the concentration of the three phenolic acids in the studied samples. The densities of such samples were also measured, and for this task 1 mL of each sample was weighed to a precision of 0.1 mg using an AS 110 R2.PLUS analytical balance from […] (Radom, Poland). The obtained densities enabled the calculation of mole fractions of CAF, SYR, and COU dissolved in the studied DESs. For each considered system, three distinct measurements were conducted, and the results were averaged.

Mole fraction solubility (Bet – GLY 1:2 + water, x*DES 0.9, 30°C): 0.1149±0.0011 mole fraction | Mole fraction solubility (Bet – GLY 1:2 + water, x*DES 0.9, 35°C): 0.1464±0.0025 mole fraction | Mole fraction solubility (Bet – GLY 1:2 + water, x*DES 0.9, 40°C): 0.1934±0.0021 mole fraction | Mole fraction solubility (Bet – GLY 1:2, x*DES 1.0 (neat DES), 25°C): 0.0898±0.0003 mole fraction | Mole fraction solubility (Bet – GLY 1:2, x*DES 1.0 (neat DES), 30°C): 0.1090±0.0010 mole fraction | Mole fraction solubility (Bet – GLY 1:2, x*DES 1.0 (neat DES), 35°C): 0.1389±0.0009 mole fraction | Mole fraction solubility (Bet – GLY 1:2, x*DES 1.0 (neat DES), 40°C): 0.1842±0.0017 mole fraction | Increase in the solubility compared to the neat DES (Bet-GLY 1:2, x*DES = 0.9 (xwater = 0.1)): 3% | Mole fraction solubility (ChCl – TEG 1:2 + water, x*DES 0.1, 25°C): 0.0131±0.0002 mole fraction | Mole fraction solubility (ChCl – TEG 1:2 + water, x*DES 0.1, 30°C): 0.0168±0.0002 mole fraction | Mole fraction solubility (ChCl – TEG 1:2 + water, x*DES 0.1, 35°C): 0.0216±0.0002 mole fraction | Mole fraction solubility (ChCl – TEG 1:2 + water, x*DES 0.1, 40°C): 0.0287±0.0003 mole fraction | Mole fraction solubility (ChCl – TEG 1:2 + water, x*DES 0.2, 25°C): 0.0283±0.0002 mole fraction | Mole fraction solubility (ChCl – TEG 1:2 + water, x*DES 0.2, 30°C): 0.0357±0.0002 mole fraction | Mole fraction solubility (ChCl – TEG 1:2 + water, x*DES 0.2, 35°C): 0.0459±0.0004 mole fraction | Mole fraction solubility (ChCl – TEG 1:2 + water, x*DES 0.2, 40°C): 0.0604±0.0004 mole fraction | Mole fraction solubility (ChCl – TEG 1:2 + water, x*DES 0.3, 25°C): 0.0412±0.0004 mole fraction | Mole fraction solubility (ChCl – TEG 1:2 + water, x*DES 0.3, 30°C): 0.0506±0.0006 mole fraction | Mole fraction solubility (ChCl – TEG 1:2 + water, x*DES 0.3, 35°C): 0.0649±0.0005 mole fraction | Mole fraction solubility (ChCl – TEG 1:2 + water, x*DES 0.3, 40°C): 0.0862±0.0009 mole fraction | Mole fraction solubility (ChCl – TEG 1:2 + water, x*DES 0.4, 25°C): 0.0512±0.0003 mole fraction | Mole fraction solubility (ChCl – TEG 1:2 + water, x*DES 0.4, 30°C): 0.0664±0.0007 mole fraction | Mole fraction solubility (ChCl – TEG 1:2 + water, x*DES 0.4, 35°C): 0.0861±0.0005 mole fraction | Mole fraction solubility (ChCl – TEG 1:2 + water, x*DES 0.4, 40°C): 0.1133±0.0008 mole fraction | Mole fraction solubility (ChCl – TEG 1:2 + water, x*DES 0.5, 25°C): 0.0632±0.0004 mole fraction | Mole fraction solubility (ChCl – TEG 1:2 + water, x*DES 0.5, 30°C): 0.0790±0.0006 mole fraction | Mole fraction solubility (ChCl – TEG 1:2 + water, x*DES 0.5, 35°C): 0.1033±0.0010 mole fraction | Mole fraction solubility (ChCl – TEG 1:2 + water, x*DES 0.5, 40°C): 0.1413±0.0012 mole fraction | Mole fraction solubility (ChCl – TEG 1:2 + water, x*DES 0.6, 25°C): 0.0774±0.0005 mole fraction | Mole fraction solubility (ChCl – TEG 1:2 + water, x*DES 0.6, 30°C): 0.0946±0.0004 mole fraction | Mole fraction solubility (ChCl – TEG 1:2 + water, x*DES 0.6, 35°C): 0.1258±0.0012 mole fraction | Mole fraction solubility (ChCl – TEG 1:2 + water, x*DES 0.6, 40°C): 0.1692±0.0013 mole fraction | Mole fraction solubility (ChCl – TEG 1:2 + water, x*DES 0.7, 25°C): 0.0885±0.0008 mole fraction | Mole fraction solubility (ChCl – TEG 1:2 + water, x*DES 0.7, 30°C): 0.1119±0.0007 mole fraction | Mole fraction solubility (ChCl – TEG 1:2 + water, x*DES 0.7, 35°C): 0.1523±0.0007 mole fraction | Mole fraction solubility (ChCl – TEG 1:2 + water, x*DES 0.7, 40°C): 0.2060±0.0014 mole fraction | Mole fraction solubility (ChCl – TEG 1:2 + water, x*DES 0.8, 25°C): 0.1016±0.0009 mole fraction | Mole fraction solubility (ChCl – TEG 1:2 + water, x*DES 0.8, 30°C): 0.1348±0.0012 mole fraction | Mole fraction solubility (ChCl – TEG 1:2 + water, x*DES 0.8, 35°C): 0.1803±0.0006 mole fraction | Mole fraction solubility (ChCl – TEG 1:2 + water, x*DES 0.8, 40°C): 0.2401±0.0023 mole fraction | Mole fraction solubility (ChCl – TEG 1:2 + water, x*DES 0.9, 30°C): 0.1368±0.0008 mole fraction | Mole fraction solubility (ChCl – TEG 1:2 + water, x*DES 0.9, 35°C): 0.1857±0.0007 mole fraction | Mole fraction solubility (ChCl – TEG 1:2 + water, x*DES 0.9, 40°C): 0.2507±0.0018 mole fraction | Mole fraction solubility (ChCl – TEG 1:2, x*DES 1.0 (neat DES), 25°C): 0.0997±0.0009 mole fraction | Mole fraction solubility (ChCl – TEG 1:2, x*DES 1.0 (neat DES), 30°C): 0.1304±0.0012 mole fraction | Mole fraction solubility (ChCl – TEG 1:2, x*DES 1.0 (neat DES), 35°C): 0.1773±0.0014 mole fraction | Mole fraction solubility (ChCl – TEG 1:2, x*DES 1.0 (neat DES), 40°C): 0.2433±0.0022 mole fraction | Increase in the solubility compared to the neat DES (ChCl-TEG 1:2, x*DES = 0.9 (xwater = 0.1)): 6% | Solubility increase between 25 °C and 40 °C (neat DES (x*DES = 1.0) involving betaine (Bet-GLY 1:2)): 205% | Solubility increase between 25 °C and 40 °C (neat DES (x*DES = 1.0) with choline chloride (ChCl-TEG 1:2)): 244%
Compound: O=C(O)C=Cc1ccc(O)cc1 [p-coumaric acid, 4-hydroxycinnamic acid]
Mole fraction solubility (ChCl – TEG 1:2 + water, x*DES 0.9, 25°C): 0.1054 mole fraction and 0.1054±0.0008 mole fraction
